The values that follow come from patent publication US11419852B2, “Beta-lactam compounds or salts thereof for use in long-acting prevention or treatment of a glucose metabolism disorder” (GLYCOLYSIS BIOMED CO., LTD., priority 2019, dated 2022).

Marks after values point to notes of the source that are not given here.

What all share (format): in vivo
The test system of data set [1] is db/db mice. As to the kind of experiment: Plasma biochemical parameters (AST, ALT, BUN, Cr, HbA1c).
Description: Inflammatory markers such as serum aspartate aminotransferase (AST), alanine aminotransferase (ALT), blood urea nitrogen (BUN), creatinine (Cr), and hemoglobin Alc (HbAlc) were measured using a BMC-Hitachi 717 chemistry auto analyzer.
Data set [2] is described as follows: Food and water intake of mice. To be noted: for Food intake in db/db mice / Water intake in db/db mice: Ex 3, P<0.05; for Diet intake / Water intake: Ex 3: db/db mice, daily dosing 3 weeks at doses of Table 10. The procedure: (§1) Four to five weeks old db/db mice (BKS.Cg-Dock7^m+/+Lepr^db/JNarl) and m/m mice (BKS.Cg-Dock7^m+/Dock7^m+) were obtained from National Laboratory Animal Center ([…], Taiwan). […] PMI Nutrition International, Brentwood, Mo.) and water ad libitum. […] The mouse body weight (bw) and the amounts of water and food intake were recorded weekly for the entire study period.

A short description of data set [3]: Body weight of mice recorded weekly. To be noted: Ex 3: db/db mice, daily dosing 3 weeks at doses of Table 10. The procedure:
as §1

The subject of data set [4] is db/db mice. Put plainly: Oral glucose tolerance test (OGTT). To be noted: for OGTT AUC: Ex 3: db/db mice, daily dosing 3 weeks at doses of Table 10. The arrangement: OGTT AUC: unit not given here. On the procedure:
Four to five weeks old db/db mice (BKS.Cg-Dock7^m+/+Lepr^db/JNarl) and m/m mice (BKS.Cg-Dock7^m+/Dock7^m+) were obtained from National Laboratory Animal Center ([…], Taiwan). […] PMI Nutrition International, Brentwood, Mo.) and water ad libitum. […] Blood was sampled from the tail vein, and FPG levels were measured and recorded as the basic blood glucose levels. […] The total area under the curve (AUC) in OGTT was plotted and calculated by the Area Under Coordinates Program (StatsToDo Server, Department of Obstetrics and Gynecology, Chinese University of Hong Kong).

The mark [5] stands for this setting: Ex 3, after the treatments had been stopped for 6 weeks.
The mark [6] stands for this setting: Ex 3: db/db mice, daily dosing 3 weeks at doses of Table 10, week 9.

In the case of `CO/N=C(\C(=O)N[C@@H]1C(=O)N2C(C(=O)O)=C(CSc3nc(=O)c(=O)[nH]n3C)CS[C@H]12)c1csc(N)n1` [CEFT, ceftriaxone], in the data set on db/db mice [1] (setting [5]), the “Level of ALT” value is “reduce”, the “Level of AST” value is “reduce”, the “Level of BUN” value was “reduce” and the “Level of Cr” value is on record as “reduce”. Also, the “Level of HbA1c” value with db/db mice [1] (setting [5]) was “reduce”. In the data set on db/db mice [1] (setting [6]), the ALT is listed as 80 ± 7^bc U/L, the AST was 104 ± 10^ac U/L, the BUN was 38 ± 2^bc mg/dL and the Creatinine was 0.428 ± 0.01^b mg/dL. Besides, in the data set on db/db mice [1] (setting [6]), the HbA1c is on record as 4.9 ± 0.2^c %. Besides, in data set [2], the “Food intake in db/db mice” value is reported as “significantly reduced”, the “Water intake in db/db mice” value is on record as “significantly reduced”, the Diet intake is reported as 5.0 ± 1^b g/mice/day and the Water intake was 7.1 ± 1^b mL/mice/day. Further, the Body weight in data set [3] (Baseline) was 30.0 ± 1^b. Further, the Body weight in data set [3] (Final) is 37.8 ± 2^c. The Body weight in data set [3] (Week 3) is on record as 32.9 ± 1^cd. Moreover, the Body weight in data set [3] (Week 6 (stopped for 3 weeks)) was 34.1 ± 2^b. Besides, in data set [3] (Week 9 (stopped for 6 weeks)), the Body weight is reported as 38.8 ± 2^c. Also, in the data set with db/db mice [4] (Week 6 (stopped for 3 weeks)), the “OGTT AUC” value was 1276 ± 69^b. The “OGTT AUC” value with db/db mice [4] (Week 9 (stopped for 6 weeks)) is 1483 ± 37^ce.
With `CC1(C)S[C@@H]2[C@H](NC(=O)Cc3ccccc3)C(=O)N2[C@H]1C(=O)O` [PEN, penicillin G], the “Level of HbA1c” value with db/db mice [1] (setting [5]) is “reduce”. For the same compound, the HbA1c in the data set with db/db mice [1] (setting [6]) is 4.2 ± 0.2^a %. In addition, in the data set on db/db mice [1] (mouse, in vivo), the ALT is recorded as 72 ± 20^ab U/L, the AST was 169 ± 24^de U/L, the BUN is given as 41 ± 5^bd mg/dL and the Creatinine is 0.424 ± 0.02^ab mg/dL. In data set [2], the “Food intake in db/db mice” value is “significantly reduced”, the “Water intake in db/db mice” value is “significantly reduced”, the Diet intake was 4.0 ± 0.9^a g/mice/day and the Water intake is 8.3 ± 4^c mL/mice/day. Also, in data set [3] (Baseline), the Body weight is 31.1 ± 1^b. Moreover, the Body weight in data set [3] (Final) is given as 32.2 ± 1^b. In addition, the Body weight in data set [3] (Week 3) was 25.7 ± 1^b. Moreover, the Body weight in data set [3] (Week 6 (stopped for 3 weeks)) was 24.6 ± 1^a. Further, the Body weight in data set [3] (Week 9 (stopped for 6 weeks)) was 32.4 ± 1^b. Besides, in the data set with db/db mice [4] (Ex 3, medications stopped for at least 3 weeks (FIG. 6A, 6B)), the “Regulation of blood glucose homeostasis (OGTT glucose vs G8)” value is on record as “still effective”. Further, the “OGTT AUC” value in the data set on db/db mice [4] (Week 6 (stopped for 3 weeks)) is listed as 1088 ± 91^b. Further, the “OGTT AUC” value in the data set on db/db mice [4] (Week 9 (stopped for 6 weeks)) is 1181 ± 69^b.
For the compound `C[C@@H](O)[C@H]1C(=O)N2C(C(=O)O)=C(S[C@@H]3CN[C@H](C(=O)N(C)C)C3)[C@H](C)[C@H]12` [MER, meropenem hydrate], the “Level of AST” value in the data set on db/db mice [1] (setting [5]) is “reduce”. In addition, the ALT in the data set with db/db mice [1] (setting [6]) was 89 ± 5^bcd U/L. The AST with db/db mice [1] (setting [6]) is reported as 93 ± 8^ab U/L. In the data set with db/db mice [1] (setting [6]), the BUN is given as 43 ± 2^bd mg/dL. Moreover, the Creatinine with db/db mice [1] (setting [6]) is 0.488 ± 0.03^cde mg/dL. Further, the HbA1c with db/db mice [1] (setting [6]) is on record as 6.9 ± 0.3^e %. For the same compound, the Diet intake in data set [2] is 5.9 ± 1^c g/mice/day. For the same compound, in data set [2], the Water intake was 14.7 ± 1^e mL/mice/day. Further, the Body weight is reported as 28.3 ± 1^b in data set [3] (Baseline); 36.0 ± 2^bc in data set [3] (Final); 33.6 ± 1^cd in data set [3] (Week 3); 37.1 ± 1b^c in data set [3] (Week 6 (stopped for 3 weeks)); 38.2 ± 2^c in data set [3] (Week 9 (stopped for 6 weeks)). Also, the “OGTT AUC” value was 1599 ± 39^c with db/db mice [4] (Week 6 (stopped for 3 weeks)) and 1648 ± 61^def with db/db mice [4] (Week 9 (stopped for 6 weeks)).
Take tienam: in the data set on db/db mice [1] (mouse, in vivo), the ALT is given as 104 ± 10^cd U/L, the AST is 212 ± 43^e U/L, the BUN was 47 ± 4^d mg/dL and the Creatinine is on record as 0.473 ± 0.05^be mg/dL.
